Where a SMILES comes first, the peptide text is derived from it. [ ]: non-standard residue; d: D form. Aib = CC(C)(N)C(=O)O

The source of these data is ChEMBL document CHEMBL4420062, “Tfpi inhibitors and methods of use” (2013).

One series has as its target T1, Tissue factor pathway inhibitor (Homo sapiens, UniProt P10646).
T1 sequence (P10646 whole entry): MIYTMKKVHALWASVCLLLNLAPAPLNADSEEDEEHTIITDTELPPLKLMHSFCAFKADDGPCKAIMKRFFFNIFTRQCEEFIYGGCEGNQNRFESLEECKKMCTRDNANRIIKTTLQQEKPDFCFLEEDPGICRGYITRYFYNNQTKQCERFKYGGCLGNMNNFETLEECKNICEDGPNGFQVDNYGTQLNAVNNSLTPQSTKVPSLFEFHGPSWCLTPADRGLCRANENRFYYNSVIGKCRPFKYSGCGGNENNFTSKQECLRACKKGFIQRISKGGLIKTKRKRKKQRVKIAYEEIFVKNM
Description: Binding affinity to TFPI (unknown origin) incubated for […] using tracer peptide JBT0131 by screening ELISA.
Settings: not given
In general terms: An ELISA detects its analyte on a solid surface through an enzyme-linked reagent.
As for Ac-FQSFKNVFVFGYFERLRAKL-NH2, the IC50 is more than 5 µM.

Compound Ac-FQSDKNVFVFGYFERLRAKL-NH2 registered an IC50 of more than 5 µM.

Compound Ac-FQSKKNVFGFGYFERLRAKL-NH2 registered an IC50 of more than 5 µM.

The compound `CCCCCCCCCCCCCC(=O)NCCCC[C@H](NC(=O)[C@@H](NC(=O)[C@H](Cc1cnc[nH]1)NC(=O)[C@@H](NC(=O)[C@H](CO)NC(=O)[C@H]1CCCN1C(=O)[C@H](CCCCN)NC(=O)[C@H](CO)NC(=O)[C@H](CCC(N)=O)NC(=O)[C@H](Cc1ccccc1)NC(=O)CCCCC)C(C)C)C(C)(C)C)C(=O)N[C@H](C)C(=O)N[C@@H](Cc1ccc(O)cc1)C(=O)N[C@@H](Cc1ccccc1)C(=O)N[C@@H](CCC(=O)O)C(=O)N[C@@H](CCCNC(=N)N)C(=O)N[C@@H](CC(C)C)C(=O)NC(C)(C)C(=O)N[C@@H](C)C(=O)N[C@@H](CCCCN)C(=O)N[C@@H](CC(C)C)C(N)=O` returned an IC50 of more than 0.5 µM.

As to `CC(=O)N[C@@H](Cc1ccccc1)C(=O)N[C@@H](CCC(N)=O)C(=O)N[C@@H](CO)C(=O)N[C@@H](CCCCN)C(=O)NCC(=O)N[C@@H](CC(N)=O)C(=O)N[C@H](C(=O)NC(C)(C)C(=O)N[C@H](C(=O)N[C@@H](CC(=O)O)C(=O)NCC(=O)N[C@@H](Cc1ccc(O)cc1)C(=O)N[C@@H](Cc1ccccc1)C(=O)N[C@@H](CCC(=O)O)C(=O)N[C@@H](CCCNC(=N)N)C(=O)N[C@@H](CC(C)C)C(=O)NC(C)(C)C(=O)N[C@@H](C)C(=O)N[C@@H](CCCCN)C(=O)N[C@@H](CC(C)C)C(N)=O)C(C)C)C(C)C` (Ac-FQSKGNV[Aib]VDGYFERL[Aib]AKL-NH2), the IC50 was more than 5 µM.

In turn, `CCCCCCCCCCCCCC(=O)NCCCC[C@H](NC(=O)[C@H](CO)NC(=O)[C@H](CCC(N)=O)NC(=O)[C@H](Cc1ccccc1)NC(=O)CCCCC)C(=O)N1CCC[C@@H]1C(=O)N[C@@H](CO)C(=O)N[C@H](C(=O)N[C@@H](Cc1cnc[nH]1)C(=O)N[C@H](C(=O)N[C@@H](CC(=O)O)C(=O)N[C@H](C)C(=O)N[C@@H](Cc1ccc(O)cc1)C(=O)N[C@@H](Cc1ccccc1)C(=O)N[C@@H](CCC(=O)O)C(=O)N[C@@H](CCCNC(=N)N)C(=O)N[C@@H](CC(C)C)C(=O)NC(C)(C)C(=O)N[C@@H](C)C(=O)N[C@@H](CCCCN)C(=O)N[C@@H](CC(C)C)C(N)=O)C(C)(C)C)C(C)C` yielded an IC50 of more than 0.5 µM.

For the compound Ac-FQSKKNVFVFLYFERLRAKL-NH2, the IC50 was more than 5 µM.

In the case of Ac-FQLKKNVFVFGYFERLRAKL-NH2, the half-maximal inhibitory concentration (IC50) was more than 5 µM.

Consider Ac-FQSKLNVFVFGYFERLRAKL-NH2, for which the IC50 is more than 1.67 µM.

For Ac-FQSKKNVFVFGGFERLRAKL-NH2, the IC50 is more than 5 µM.

Regarding Ac-FQSKKNYDVFGYFERLRAKL-NH2, the IC50 is more than 5 µM.

Ac-FQSKKFVFVFGYFERLRAKL-NH2: the IC50 is more than 5 µM.

Turning to Ac-FQSKKNVFVFGYFERLDAKL-NH2, the IC50 is more than 5 µM.

Ac-FQSKGNVFVDGYFERLRRKL-NH2: the IC50 is less than 0.05 µM.

Compound `CC(=O)N[C@@H](Cc1ccccc1)C(=O)N[C@@H](CCC(N)=O)C(=O)N[C@@H](CO)C(=O)N[C@@H](CCCCN)C(=O)NCC(=O)N[C@@H](CC(N)=O)C(=O)N[C@H](C(=O)N[C@@H](Cc1ccccc1)C(=O)N[C@H](C(=O)N[C@@H](CC(=O)O)C(=O)NCC(=O)NC(C)(C)C(=O)NC(C)(C)C(=O)N[C@@H](C)C(=O)N[C@@H](CCCCN)C(=O)N[C@@H](CC(C)C)C(N)=O)C(C)C)C(C)C` (Ac-FQSKGNVFVDG[Aib][Aib]AKL-NH2) registered an IC50 of more than 5 µM.

Regarding Ac-FQSKKNVFVFFYFERLRAKL-NH2, the IC50 is more than 1.67 µM.

Turning to Ac-FQSLKNVFVFGYFERLRAKL-NH2, the half-maximal inhibitory concentration (IC50) is more than 1.67 µM.

Consider Ac-FQSKKNVFVFGYFERLRAFL-NH2, for which the IC50 was more than 5 µM.

For the compound Ac-FQSKKNVFVFGYFERFRAKL-NH2, the IC50 was more than 5 µM.

On to Ac-FQSKKNVFVFGLFERLRAKL-NH2, for which the IC50 was more than 5 µM.

Ac-FFSKKNVFVFGYFERLRAKL-NH2: the IC50 is more than 5 µM.

Ac-FQSKKNVFVFGFFERLRAKL-NH2 had a concentration for half-maximal inhibition (IC50) of more than 5 µM.

Compound Ac-FQSKKNVFVFGYFEFLRAKL-NH2 registered an IC50 of more than 5 µM.

Take Ac-FQSKKNVFVFGYFERLRFKL-NH2: the IC50 is more than 5 µM.

As to Ac-FQSKKNVFVFGYFERLFAKL-NH2, the IC50 is more than 5 µM.

`CC(=O)N[C@H](CC(C)C)C(=O)N[C@H](CCCCN)C(=O)N[C@H](C)C(=O)N[C@H](CCCNC(=N)N)C(=O)N[C@H](CC(C)C)C(=O)N[C@H](CCCNC(=N)N)C(=O)N[C@H](CCC(=O)O)C(=O)N[C@H](Cc1ccccc1)C(=O)N[C@H](Cc1ccc(O)cc1)C(=O)NCC(=O)N[C@H](Cc1ccccc1)C(=O)N[C@@H](C(=O)N[C@H](Cc1ccccc1)C(=O)N[C@@H](C(=O)N[C@H](CC(N)=O)C(=O)N[C@H](CCCCN)C(=O)N[C@H](CCCCN)C(=O)N[C@H](CO)C(=O)N[C@H](CCC(N)=O)C(=O)N[C@H](Cc1ccccc1)C(N)=O)C(C)C)C(C)C` returned an IC50 of 0.556 to 1.67 µM.

For Ac-FDSKKNVFVFGYFERLRAKL-NH2, the IC50 is more than 1.67 µM.

Compound Ac-FLSKKNVFVFGYFERLRAKL-NH2 yielded a 50% inhibitory concentration (IC50) of 1 to 5 µM.

For the compound Ac-FQSKKNVFVFGDFERLRAKL-NH2, the IC50 was more than 5 µM.

Take Ac-FQFKKNVFVFGYFERLRAKL-NH2: the IC50 was more than 5 µM.

Test system in a further series: not listed separately
Description: Stability in human plasma assessed as parent compound remaining after 24 hrs. Conditions: read-out: Stability. The series is classed as ADME, cell-free.
As for `CCCCCC(=O)N[C@@H](Cc1ccccc1)C(=O)N[C@@H](CCC(N)=O)C(=O)N[C@@H](CO)C(=O)N[C@@H](CCCCN)C(=O)N1CCC[C@@H]1C(=O)N[C@@H](CSCNC(C)=O)C(=O)N[C@H](C(=O)N[C@@H](Cc1cnc[nH]1)C(=O)N[C@H](C(=O)N[C@@H](CC(=O)O)C(=O)N[C@H](C)C(=O)N[C@@H](Cc1ccc(O)cc1)C(=O)N[C@@H](Cc1ccccc1)C(=O)N[C@@H](CCC(=O)O)C(=O)N[C@@H](CCCNC(=N)N)C(=O)N[C@@H](CC(C)C)C(=O)NC(C)(C)C(=O)N[C@@H](C)C(=O)N[C@@H](CCCCN)C(=O)N[C@@H](CC(C)C)C(=O)N[C@@H](CSC1CC(=O)N(CC)C1=O)C(=O)O)C(C)(C)C)C(C)C` (some centres not stated), the remaining at 24 h is 107%.

For the compound `CC(=O)N[C@@H](Cc1ccccc1)C(=O)N[C@@H](CCC(N)=O)C(=O)N[C@@H](CO)C(=O)N[C@@H](CCCCN)C(=O)N(CC(=O)N[C@@H](CC(N)=O)C(=O)N[C@H](C(=O)N[C@@H](Cc1cnc[nH]1)C(=O)N[C@H](C(=O)N[C@@H](CC(=O)O)C(=O)NCC(=O)N[C@@H](Cc1ccc(O)cc1)C(=O)N[C@@H](Cc1ccccc1)C(=O)N[C@@H](CCC(=O)O)C(=O)N[C@@H](CCCNC(=N)N)C(=O)N[C@@H](CC(C)C)C(=O)NC(C)(C)C(=O)N[C@@H](C)C(=O)N[C@@H](CCCCN)C(=O)N[C@@H](CC(C)C)C(N)=O)C(C)C)C(C)C)C1CCCCC1`, the remaining at 24 h is 17.4%.

For `CC(C)C[C@@H]1NC(=O)[C@H](CCCCN)NC(=O)[C@H](C)NC(=O)C(C)(C)NC(=O)[C@H](CC(C)C)NC(=O)[C@H](CCCNC(=N)N)NC(=O)[C@H](CCC(=O)O)NC(=O)[C@H](Cc2ccccc2)NC(=O)[C@H](Cc2ccc(O)cc2)NC(=O)CNC(=O)[C@H](CC(=O)O)NC(=O)[C@H](C(C)C)NC(=O)[C@H](Cc2cnc[nH]2)NC(=O)[C@H](C(C)C)NC(=O)[C@H](CC(N)=O)NC(=O)[C@H]2CCCN2C(=O)[C@H](CCCCN)NC(=O)[C@H](CO)NC(=O)[C@H](CCC(N)=O)NC(=O)[C@H](Cc2ccccc2)NC(=O)CCOCCOCCOCCOCCNC1=O`, the remaining at 24 h was 55.9%.

In the case of `CC(C)C[C@H](NC(=O)[C@H](CCCCN)NC(=O)[C@H](C)NC(=O)C(C)(C)NC(=O)[C@H](CC(C)C)NC(=O)[C@H](CCCNC(=N)N)NC(=O)[C@H](CCC(=O)O)NC(=O)[C@H](Cc1ccccc1)NC(=O)[C@H](Cc1ccc(O)cc1)NC(=O)[C@@H](C)NC(=O)[C@H](CC(=O)O)NC(=O)[C@@H](NC(=O)[C@H](Cc1cnc[nH]1)NC(=O)[C@@H](NC(=O)[C@H](CC(N)=O)NC(=O)[C@H]1CCCN1C(=O)[C@H](CCCCN)NC(=O)[C@H](CO)NC(=O)[C@H](CCC(N)=O)NC(=O)[C@H](Cc1ccccc1)NS(=O)(=O)c1ccc2ccccc2c1)C(C)C)C(C)(C)C)C(N)=O`, the remaining at 24 h amounted to 105%.

`CC(C)C[C@H](NC(=O)[C@H](CCCCN)NC(=O)[C@H](C)NC(=O)C(C)(C)NC(=O)[C@H](CC(C)C)NC(=O)[C@H](CCCNC(=N)N)NC(=O)[C@H](CCC(=O)O)NC(=O)[C@H](Cc1ccccc1)NC(=O)[C@H](Cc1ccc(O)cc1)NC(=O)[C@@H](C)NC(=O)[C@H](CC(=O)O)NC(=O)[C@@H](NC(=O)[C@H](Cc1cnc[nH]1)NC(=O)[C@@H](NC(=O)[C@H](CC(N)=O)NC(=O)[C@H]1CCCN1C(=O)[C@H](CCCCN)NC(=O)[C@H](CO)NC(=O)[C@H](CCC(N)=O)NC(=O)[C@H](Cc1ccccc1)NC(=O)Cc1ccc2ccccc2c1)C(C)C)C(C)(C)C)C(N)=O`: the remaining at 24 h was found to be 108%.

Regarding `CCN1C(=O)CC(SC[C@H](NC(=O)[C@H](CC(C)C)NC(=O)[C@H](CCCCN)NC(=O)[C@H](C)NC(=O)C(C)(C)NC(=O)[C@H](CC(C)C)NC(=O)[C@H](CCCNC(=N)N)NC(=O)[C@H](CCC(=O)O)NC(=O)[C@H](Cc2ccccc2)NC(=O)[C@H](Cc2ccc(O)cc2)NC(=O)[C@H](C)NC(=O)[C@H](CC(=O)O)NC(=O)[C@@H](NC(=O)[C@H](Cc2cnc[nH]2)NC(=O)[C@@H](NC(=O)[C@H](CC(N)=O)NC(=O)[C@H]2CCCN2C(=O)[C@H](CCCCN)NC(=O)[C@H](CO)NC(=O)[C@H](CCC(N)=O)NC(=O)[C@H](Cc2ccccc2)NC(C)=O)C(C)C)C(C)C)C(N)=O)C1=O` (some centres not stated), the remaining at 24 h was determined as 17.9%.

On to `CC(=O)N[C@@H](Cc1ccccc1)C(=O)N[C@@H](CCC(N)=O)C(=O)N[C@@H](CO)C(=O)N[C@@H](CCCCN)C(=O)N1CCC[C@@H]1C(=O)N[C@@H](CC(N)=O)C(=O)N[C@H](C(=O)N[C@@H](Cc1cnc[nH]1)C(=O)N[C@H](C(=O)N1CCC[C@H]1C(=O)NCC(=O)N[C@@H](Cc1ccc(O)cc1)C(=O)N[C@@H](Cc1ccccc1)C(=O)N[C@@H](CCC(=O)O)C(=O)N[C@@H](CCCNC(=N)N)C(=O)N[C@@H](CC(C)C)C(=O)NC(C)(C)C(=O)N[C@@H](C)C(=O)N[C@@H](CCCCN)C(=O)N[C@@H](CC(C)C)C(N)=O)C(C)C)C(C)C`, for which the remaining at 24 h came out at 76.3%.

As a reminder, the IC50 is the point on the concentration scale where inhibition reaches its midpoint. Low readings indicate greater potency in that assay, high ones weaker potency in that assay.
